Measurements reported in the NIST ThermoML archive (doi:10.1016/j.jct.2006.05.008).
± gives the expanded uncertainty stated by the source.

Test: molar heat capacity at constant pressure
Conditions: 101.33 kPa, Small (less than 1 g) adiabatic calorimetry

CCCCn1cc[n+](C)c1.[Br-] [1-butyl-3-methylimidazolium bromide]
Conditions | molar heat capacity at constant pressure [J/K/mol]
122.75 K, Glass | 139.07 ± 0.76
123.63 K, Crystal | 131.11 ± 0.73
124.78 K, Glass | 140.32 ± 0.76
125.66 K, Crystal | 132.08 ± 0.73
126.82 K, Glass | 141.79 ± 0.77
127.7 K, Crystal | 133.1 ± 0.73
128.85 K, Glass | 143.22 ± 0.77
129.73 K, Crystal | 134.32 ± 0.74
130 K, Crystal | 134.3 ± 0.75
130.89 K, Glass | 144.53 ± 0.78
131.77 K, Crystal | 135.36 ± 0.74
132.93 K, Glass | 145.61 ± 0.78
133.82 K, Crystal | 136.37 ± 0.75
134.98 K, Glass | 147.16 ± 0.79
135.86 K, Crystal | 137.63 ± 0.75
137.02 K, Glass | 148.47 ± 0.79
137.9 K, Crystal | 138.69 ± 0.75
139.07 K, Glass | 149.68 ± 0.8
139.95 K, Crystal | 139.77 ± 0.76
140 K, Crystal | 139.7 ± 0.75
141.11 K, Glass | 150.96 ± 0.8
142 K, Crystal | 140.95 ± 0.76
143.16 K, Glass | 152.33 ± 0.81
144.05 K, Crystal | 142.17 ± 0.77
145.21 K, Glass | 153.64 ± 0.82
146.11 K, Crystal | 143.29 ± 0.77
147.27 K, Glass | 154.99 ± 0.82
148.17 K, Crystal | 144.04 ± 0.78
149.33 K, Glass | 156.22 ± 0.82
150 K, Crystal | 145.1 ± 0.75
150.23 K, Crystal | 145.16 ± 0.78
151.38 K, Glass | 157.56 ± 0.83
152.28 K, Crystal | 146.48 ± 0.79
153.44 K, Glass | 158.85 ± 0.83
154.34 K, Crystal | 147.77 ± 0.79
155.5 K, Glass | 160.15 ± 0.84
156.4 K, Crystal | 148.83 ± 0.8
157.55 K, Glass | 161.46 ± 0.85
158.47 K, Crystal | 149.86 ± 0.8
159.61 K, Glass | 162.88 ± 0.85
160 K, Crystal | 150.5 ± 0.83
160.53 K, Crystal | 151.03 ± 0.8
161.68 K, Glass | 164.21 ± 0.86
162.59 K, Crystal | 152.18 ± 0.81
163.74 K, Glass | 165.38 ± 0.86
164.66 K, Crystal | 153.33 ± 0.81
165.8 K, Glass | 166.7 ± 0.87
166.73 K, Crystal | 154.42 ± 0.82
167.87 K, Glass | 168.08 ± 0.87
168.79 K, Crystal | 155.67 ± 0.82
169.93 K, Glass | 169.45 ± 0.88
170 K, Crystal | 156 ± 0.83
170.86 K, Crystal | 156.71 ± 0.83
172 K, Glass | 170.75 ± 0.88
172.93 K, Crystal | 157.83 ± 0.83
174.07 K, Glass | 172.09 ± 0.89
175 K, Crystal | 159 ± 0.84
176.14 K, Glass | 173.39 ± 0.89
177.07 K, Crystal | 160.17 ± 0.84
178.21 K, Glass | 174.81 ± 0.9
179.15 K, Crystal | 161.41 ± 0.85
180 K, Crystal | 161.6 ± 0.83
180.29 K, Glass | 176.19 ± 0.9
181.23 K, Crystal | 162.53 ± 0.85
182.37 K, Glass | 177.61 ± 0.91
183.3 K, Crystal | 163.73 ± 0.85
184.44 K, Glass | 178.88 ± 0.92
185.38 K, Crystal | 164.89 ± 0.86
186.51 K, Glass | 180.34 ± 0.92
187.45 K, Crystal | 166.26 ± 0.87
188.59 K, Glass | 181.72 ± 0.93
189.53 K, Crystal | 167.35 ± 0.87
190 K, Crystal | 167.4 ± 0.83
190.66 K, Glass | 183.15 ± 0.93
191.61 K, Crystal | 168.45 ± 0.87
192.74 K, Glass | 184.62 ± 0.94
193.69 K, Crystal | 169.62 ± 0.88
194.82 K, Glass | 186.01 ± 0.94
195.77 K, Crystal | 170.97 ± 0.88
196.9 K, Glass | 187.63 ± 0.95
197.85 K, Crystal | 172.33 ± 0.89
198.98 K, Glass | 189.28 ± 0.96
199.93 K, Crystal | 173.55 ± 0.89
200 K, Crystal | 173.4 ± 0.92
201.07 K, Glass | 191 ± 0.96
202.01 K, Crystal | 174.87 ± 0.9
203.15 K, Glass | 192.74 ± 0.97
204.09 K, Crystal | 176.17 ± 0.9
205.24 K, Glass | 194.6 ± 0.98
206.18 K, Crystal | 177.52 ± 0.91
207.34 K, Glass | 196.57 ± 0.99
208.26 K, Crystal | 178.87 ± 0.92
209.44 K, Glass | 199.14 ± 1
